One test deals with T1, COX II (Homo sapiens, UniProt P35354).
T1 construct: made in house; baculovirus-infected insect cells by own knowledge of the cited Barnett et al. 1994
T1 sequence (P35354 18-604): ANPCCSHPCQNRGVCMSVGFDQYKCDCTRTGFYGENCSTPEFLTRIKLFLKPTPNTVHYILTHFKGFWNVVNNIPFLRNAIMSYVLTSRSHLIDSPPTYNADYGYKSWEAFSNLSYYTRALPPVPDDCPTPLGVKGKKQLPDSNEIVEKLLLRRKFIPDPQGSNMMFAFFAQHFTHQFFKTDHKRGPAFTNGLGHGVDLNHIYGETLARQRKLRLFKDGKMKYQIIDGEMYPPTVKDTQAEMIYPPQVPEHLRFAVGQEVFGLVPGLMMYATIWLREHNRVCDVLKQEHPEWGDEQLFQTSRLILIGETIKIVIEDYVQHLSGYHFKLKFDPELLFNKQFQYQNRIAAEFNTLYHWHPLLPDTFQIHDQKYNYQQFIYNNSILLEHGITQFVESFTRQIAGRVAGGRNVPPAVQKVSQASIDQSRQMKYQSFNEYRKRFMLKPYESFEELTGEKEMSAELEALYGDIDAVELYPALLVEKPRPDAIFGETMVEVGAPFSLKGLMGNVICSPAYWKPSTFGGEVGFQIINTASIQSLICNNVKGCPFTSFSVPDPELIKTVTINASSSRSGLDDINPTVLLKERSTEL
Put plainly: Inhibition of COX II in vitro (radiometric assay, 14C arachidonic acid, partially purified enzyme). Format: biochemical. The following applies: partially purified COX II, 20 micromolar arachidonic acid, 10 min preincubation, room temperature; read-out: COX II IC50. The procedure:
(§1) The COX I and COX II inhibitory activity of compounds of this invention in vitro was determined using partially purified COX I and COX II enzymes, prepared as described in J. Barnett et al., Biochim. Biophys. Acta, 1209:130--139 (1994).
(§2) COX I and COX II samples were diluted with Tris-HCl buffer (50 mM Tris-HCl pH 7.9) containing 2 mM EDTA and 10% glycerol and reconstituted by incubating first with 2 mM phenol for 5 minutes and then with 1 micromolar hematin for an additional 5 minutes. 125 μl of the reconstituted COX I or COX II enzyme were preincubated for 10 minutes at room temperature in a shaking water bath with the compounds of the invention dissolved in 2-15 μl of DMSO or the carrier vehicles (control samples). The enzyme reaction was initiated by adding 25 μl of 1-[14C] arachidonic acid (80,000-100,000 cpm/tube; 20 micromolar final concentration) and the reaction was allowed to continue for an additional 45 seconds. The reaction was terminated by adding 100 μl of 2N HCl and 750 μl water. An aliquot (950 μl) of the reaction mixture was loaded onto a 1 ml C18 Sep-Pak column (J. T. Baker, Phillipsburg, N.J.) which had been previously washed with 2-3 ml methanol and equilibrated with 5-6 ml distilled water. Oxygenated products were quantitatively eluted with 3 ml of acetonitrile/water/acetic acid (50:50:0.1, v/v) and the radioactivity in the eluate determined in a scintillation counter.

The next test deals with T2, COX I (Homo sapiens, UniProt P23219).
T2 construct: made in house; baculovirus-infected insect cells by own knowledge of the cited Barnett et al. 1994
The experiment in a line: Inhibition of COX I in vitro (radiometric assay, 14C arachidonic acid, partially purified enzyme). The class given is biochemical. The following applies: partially purified COX I, 20 micromolar arachidonic acid, 10 min preincubation, room temperature; read-out: COX I IC50. The procedure:
as §1, §2

By IC50 is commonly meant the point on the concentration scale where inhibition reaches its midpoint.

T2 sequence (P23219 24-599): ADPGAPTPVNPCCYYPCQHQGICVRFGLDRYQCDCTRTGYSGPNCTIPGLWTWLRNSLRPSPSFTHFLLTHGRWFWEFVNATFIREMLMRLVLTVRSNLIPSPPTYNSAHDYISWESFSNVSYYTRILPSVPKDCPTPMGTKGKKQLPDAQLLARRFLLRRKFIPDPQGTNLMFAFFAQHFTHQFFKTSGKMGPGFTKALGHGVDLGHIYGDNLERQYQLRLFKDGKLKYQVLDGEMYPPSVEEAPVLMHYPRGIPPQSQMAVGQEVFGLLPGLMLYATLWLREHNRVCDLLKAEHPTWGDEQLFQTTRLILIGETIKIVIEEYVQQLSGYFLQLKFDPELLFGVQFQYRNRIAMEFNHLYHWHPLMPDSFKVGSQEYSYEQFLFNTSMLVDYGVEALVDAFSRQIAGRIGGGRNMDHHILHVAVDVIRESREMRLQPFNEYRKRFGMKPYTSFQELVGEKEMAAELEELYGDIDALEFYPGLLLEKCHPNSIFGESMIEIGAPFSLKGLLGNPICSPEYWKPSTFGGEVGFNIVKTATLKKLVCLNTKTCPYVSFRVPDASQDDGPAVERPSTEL

For the compound `Cc1ccc(C(=O)c2ccc(Cc3ncc(NS(C)(=O)=O)cc3Cl)n2C)cc1` [compound 276, N-{3-Chloro-2-[5-(4-methylbenzoyl)-1-methyl-1H-pyrrol-2-ylmethyl]pyridin-5-yl}-methanesulfonamide], the IC50 was 0.5 µM at COX II and 60 µM at COX I.

In the case of `NS(=O)(=O)Nc1ccc(C2CCn3c(C(=O)c4ccccc4)ccc32)c(Cl)c1` (stereo not shown) [compound 222, 1-{3-Chloro-4-[5-benzoyl-1,2-dihydro-3H-pyrrolizin-1-yl]phenyl}sulfamide], the figures for the half-inhibitory concentration (IC50) on COX II and on COX I were 0.074 µM and 0.46 µM, respectively.

As to `COc1ccccc1C(=O)c1ccc(Cc2ccc(NS(C)(=O)=O)cc2F)n1C` [compound 72, N-{3-Fluoro-4-[5-(2-methoxybenzoyl)-1-methyl-1H-pyrrol-2-ylmethyl]phenyl}-methanesulfonamide], the 50% inhibitory concentration (IC50) stood at 0.7 µM on COX II and 265 µM on COX I.

With “N-{2-[5-(4-Methylbenzoyl)-1,4-dimethyl-1H-pyrrol-2-ylmethyl]pyridin-5-yl}- 2-(hydroxy)-ethanesulfonamide hydrochloride [compound 272]”, the 50% inhibitory concentration (IC50) on COX II was 2.1 µM; at COX I it was more than 1000 µM.

Turning to `CSc1ccc(C(=O)c2c(C)cc(Cc3ccc(N)cc3F)n2C)cc1` [compound 251, 3-Fluoro-4-[5-(4-methylthiobenzoyl)-1,4-dimethyl-1H-pyrrol-2-ylmethyl]aniline], the IC50 on COX II was 0.64 µM; on COX I, 310 µM.

In the case of `Cc1cc(C(C)c2ccc(NS(C)(=O)=O)cc2)n(C)c1C(=O)c1ccc(Cl)cc1` (stereo not shown) [compound 11, N-{4-[5-(4-Chlorobenzoyl)-1,4-dimethyl-1H-pyrrol-2-ylethan-1-yl]phenyl}-methanesulfonamide], the results for the half-maximal inhibitory concentration (IC50) on COX II and on COX I were 0.51 µM and 7.5 µM, respectively.

For the compound `CCS(=O)(=O)Nc1ccc(Cc2cc(C)c(C(=O)c3ccccc3)n2C)c(F)c1` [compound 68, N-{3-Fluoro-4-[5-benzoyl-1,4-dimethyl-1H-pyrrol-2-ylmethyl]phenyl}ethanesulfonamide], the IC50 on COX II worked out at 0.073 µM; on COX I, 0.86 µM.

On to `CCNC(=S)Nc1ccc(Cc2cc(C)c(C(=O)c3ccc(Cl)cc3)n2C)nc1` [compound 314, 1-{2-[5-(4-Chlorobenzoyl)-1,4-dimethyl-1H-pyrrol-2-ylmethyl]pyridin-5-yl}-3-ethyl-2-thiourea], for which the IC50 on COX II amounted to 0.56 µM; on COX I, 65 µM.

Take `Cc1cc(Cc2c(F)cc(NS(C)(=O)=O)cc2F)n(C)c1C(=O)c1ccc(Cl)cc1` [compound 27, N-{3,5-Difluoro-4-[5-(4-chlorobenzoyl)-1,4-dimethyl-1H-pyrrol-2-ylmethyl]-phenyl}-methanesulfonamide]: the figures for the concentration for half-maximal inhibition (IC50) at COX II and on COX I were 0.063 µM and 415 µM, respectively.

On to `CN(C)c1ccc(C(=O)c2ccc(Cc3ccc(NS(C)(=O)=O)cc3F)n2C)cc1` [compound 88, N-{3-Fluoro-4-[5-(4-dimethylaminobenzoyl)-1-methyl-1H-pyrrol-2-ylmethyl]phenyl}-methanesulfonamide], for which the IC50 at COX II was 0.06 µM; at COX I, less than 0.1 µM.

For the compound `Cc1cc(Cc2ccc(NS(C)(=O)=O)cc2F)n(C)c1C(=O)c1ccccc1` [compound 60, N-{3-Fluoro-4-[5-benzoyl-1,4-dimethyl-1H-pyrrol-2-ylmethyl]phenyl}methanesulfonamide], the IC50 on COX II was determined as 0.028 µM; at COX I, 0.16 µM.

For the compound `COc1ccc(C(=O)c2ccc(Cc3ccc(NS(N)(=O)=O)cc3F)n2C)cc1` [compound 196, 1-{3-Fluoro-4-[5-(4-Methoxybenzoyl)-1-methyl-1H-pyrrol-2-ylmethyl]phenyl}sulfamide], the IC50 was determined as 0.04 µM on COX II and 5 µM on COX I.

In the case of `CNS(=O)(=O)Nc1ccc(Cc2cc(C)c(C(=O)c3ccc(F)cc3)n2C)c(F)c1` [compound 206, 1-{3-Fluoro-4-[5-(4-fluorobenzoyl)-1,4-dimethyl-1H-pyrrol-2-ylmethyl]phenyl}-3-methylsulfamide], the figures for the half-inhibitory concentration (IC50) on COX II and on COX I were 0.24 µM and 0.46 µM, respectively.

With `Cc1ccc(C(=O)c2ccc(Cc3ccc(NS(C)(=O)=O)cc3Cl)n2C)cc1` [compound 31, N-{3-Chloro-4-[5-(4-methylbenzoyl)-1-methyl-1H-pyrrol-2-ylmethyl]phenyl}-methanesulfonamide], the IC50 at COX II was 0.045 µM; on COX I, 3.9 µM.

Turning to `Cc1cc(Cc2ccc(NC(=O)N(C)C)cc2)n(C)c1C(=O)c1ccc(Cl)cc1` [compound 226, 1-{1,4-[5-(4-Chlorobenzoyl)-1,4-dimethyl-1H-pyrrol-2-ylmethyl]phenyl}-3,3-dimethylurea], the IC50 turned out to be 2.1 µM at COX II and 100 µM at COX I.

Turning to `COc1ccc(C(=O)c2ccc(Cc3ccc(NS(=O)(=O)CCO)cc3F)n2C)cc1` [compound 106, N-{3-Fluoro-4-[5-(4-methoxybenzoyl)-1-methyl-1H-pyrrol-2-ylmethyl]phenyl}-2-(hydroxy)ethanesulfonamide], the IC50 on COX II is 0.07 µM; at COX I, 0.95 µM.

As for `Cc1cc(Cc2ccc(NC(=O)NCCCl)cn2)n(C)c1C(=O)c1ccc(Cl)cc1` [compound 310, 1-{2-[5-(4-Chlorobenzoyl)-1,4-dimethyl-1H-pyrrol-2-ylmethyl]pyridin-5-yl}-3-(2-chloro-ethyl)urea], the concentration for half-maximal inhibition (IC50) amounted to 9.2 µM at COX II and 142 µM at COX I.

With `Cn1c(Cc2ccc(NS(=O)(=O)CCO)cc2F)ccc1C(=O)c1ccccc1` [compound 66, N-{3-Fluoro-4-[5-benzoyl-1-methyl-1H-pyrrol-2-ylmethyl]phenyl}-2-(hydroxy)-ethanesulfonamide], the half-maximal inhibitory concentration (IC50) on COX II amounted to 0.12 µM; at COX I, 6.9 µM.

As for `Cc1cc(Cc2ccc(NS(=O)(=O)CCO)cc2F)n(C)c1C(=O)c1ccccc1` [compound 63, N-{3-Fluoro-4-[5-benzoyl-1,4-dimethyl-1H-pyrrol-2-ylmethyl]phenyl}-2-(hydroxy)-ethanesulfonamide], the half-maximal inhibitory concentration (IC50) on COX II is 0.33 µM; at COX I, 0.035 µM.

In the case of `Cc1cc(Cc2ccc(NC(=O)N(C)C)cn2)n(C)c1C(=O)c1ccc(Cl)cc1` [compound 308, 1-{2-[5-(4-Chlorobenzoyl)-1,4-dimethyl-1H-pyrrol-2-ylmethyl]pyridin-5-yl}-3,3-di-methylurea], the values for the IC50 on COX II and at COX I were 8.75 µM and 650 µM, respectively.

Consider `Cc1cc(Cc2ccc(N)cc2)n(C)c1C(=O)c1ccc(Cl)cc1` [compound 250, 4-[5-(4-Chlorobenzoyl)-1,4-dimethyl-1H-pyrrol-2-ylmethyl]aniline], for which the IC50 stood at 27.4 µM at COX II and 34 µM at COX I.

Regarding `Cc1cc(Cc2ccc(NS(C)(=O)=O)cc2)n(C)c1C(=O)c1ccc(Cl)cc1` [compound 1, N-{4-[5-(4-Chlorobenzoyl)-1,4-dimethyl-1H-pyrrol-2-ylmethyl]phenyl}methane-sulfonamide], the 50% inhibitory concentration (IC50) was found to be 0.15 µM on COX II and 11 µM on COX I.

Regarding `Cc1cc(Cc2ccc(NS(=O)(=O)N(C)C)cn2)n(C)c1C(=O)c1ccccc1` [compound 294, 1-{2-[5-Benzoyl-1,4-dimethyl-1H-pyrrol-2-ylmethyl]pyridin-5-yl}-3,3-dimethylsulfamide], the concentration for half-maximal inhibition (IC50) on COX II came out at 2.6 µM; at COX I it was 9.1 µM.

Regarding `CSc1ccc(C(=O)c2c(C)cc(Cc3ccc(NS(=O)(=O)N(C)C)cn3)n2C)cc1` [compound 296, 1-{2-[5-(4-Methylthiobenzoyl)-1,4-dimethyl-1H-pyrrol-2-ylmethyl]pyridin-5-yl}-3,3-di-methylsulfamide], the IC50 is 0.4 µM at COX II and 0.21 µM at COX I.

Turning to `Cc1cc(Cc2ccc(NC(=O)Nc3ccccc3)cc2)n(C)c1C(=O)c1ccc(Cl)cc1` [compound 227, 1-{1,4-[5-(4-Chlorobenzoyl)-1,4-dimethyl-1H-pyrrol-2-ylmethyl]phenyl}-3-phenylurea], the IC50 on COX II was found to be 0.1 µM; on COX I it was 2.5 µM.

As to `Cc1cc(Cc2ccc(NS(N)(=O)=O)cc2)n(C)c1C(=O)c1ccc(Cl)cc1` [compound 141, 1-{4-[5-(4-Chlorobenzoyl)-1,4-dimethyl-1H-pyrrol-2-ylmethyl]phenyl}sulfamide], the values for the half-inhibitory concentration (IC50) at COX II and on COX I were 0.03 µM and 3.9 µM, respectively.

The values are drawn from patent US5952368A, “5-aroylpyrrol-2-ylmethylarene derivatives” (Syntex (U.S.A.) Inc., priority 1997, dated 1999).
